From publication PMC7156458, “Synthetic biology based construction of biological activity-related library of fungal decalin-containing diterpenoid pyrones” (Nature Communications, 2020)
Where two headings read alike, the source gives them in different places.

What was measured:
l(2)mbn cells = assay: cytotoxicity in Drosophila l(2)mbn cells; format: cell-based; conditions: for Luminescence Raw1: replicate 1; for Luminescence Raw2: replicate 2
Description: (§1) We screened the DDPs on the Drosophila assay system for cytotoxicity, inhibitory activity of innate immune signalling and insecticidal activity. The cytotoxicity of the DDPs was evaluated using two cell lines, embryonic macrophage-derived DL1 cells[58]–[60] and larval blood cell-derived l(2)mbn cells, and their IC50 values are listed in Supplementary Table 23.

[1] = cytotoxicity in Drosophila l(2)mbn cells; format: cell-based; conditions: Drosophila, l(2)mbn cells (larval blood cell-derived)
Description: as §1

[2] = system: human immunodeficiency virus-1 (HIV-1); assay: anti-HIV MAGI assay; format: cell-based; conditions: Human immunodeficiency virus 1, MAGI, anti-HIV; average of numeric determinations; read-out: Avg. EC50
Description: We examined the inhibitory activities of DDPs against various species of bacteria (both gram-negative and gram-positive bacteria), fungi and viruses. […] In contrast, preliminary screening of the DDPs for anti-viral agents with hepatitis B virus (HBV), measles virus (MV), Epstein-Barr virus (EBV), herpes simplex virus (HSV) and human immunodeficiency virus-1 (HIV-1) indicated their selective inhibition of HIV.

LOX-IMVI = assay: cells; set-up: species or system JFCR39 human cancer cell lines; JFCR39 panel growth inhibition, sulforhodamine B total protein after 48 h; conditions: Homo sapiens, LOX IMVI, 48 h
Summary of the method: (§2)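 Growth inhibition in JFCR39 human cancer lines was quantified by the SRB total-protein method following 48 h compound treatment. GI50 came from duplicate runs.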

BSY-1 = assay: cells; set-up: species or system JFCR39 human cancer cell lines; JFCR39 panel growth inhibition, sulforhodamine B total protein after 48 h; conditions: BSY-1, 48 h
Summary of the method: as §2

MKN-B = assay: cells; set-up: species or system JFCR39 human cancer cell lines; JFCR39 panel growth inhibition, sulforhodamine B total protein after 48 h; conditions: 48 h
Summary of the method: as §2

KM-12 = assay: cells; set-up: species or system JFCR39 human cancer cell lines; JFCR39 panel growth inhibition, sulforhodamine B total protein after 48 h; conditions: Homo sapiens, KM12, 48 h
Summary of the method: as §2

MCF-7 = assay: cells; set-up: species or system JFCR39 human cancer cell lines; JFCR39 panel growth inhibition, sulforhodamine B total protein after 48 h; conditions: Homo sapiens, MCF7, 48 h
Summary of the method: as §2

A549 = assay: cells; set-up: species or system JFCR39 human cancer cell lines; JFCR39 panel growth inhibition, sulforhodamine B total protein after 48 h; conditions: Homo sapiens, A549, 48 h
Summary of the method: as §2

ACHN = assay: cells; set-up: species or system JFCR39 human cancer cell lines; JFCR39 panel growth inhibition, sulforhodamine B total protein after 48 h; conditions: Homo sapiens, ACHN, 48 h
Summary of the method: as §2

NCI-H226 = assay: cells; set-up: species or system JFCR39 human cancer cell lines; JFCR39 panel growth inhibition, sulforhodamine B total protein after 48 h; conditions: Homo sapiens, NCI-H226, 48 h
Summary of the method: as §2

NCI-H460 = assay: cells; set-up: species or system JFCR39 human cancer cell lines; JFCR39 panel growth inhibition, sulforhodamine B total protein after 48 h; conditions: Homo sapiens, NCI-H460, 48 h
Summary of the method: as §2

[3] = cytotoxicity in Drosophila DL1 cells; format: cell-based; conditions: Drosophila, DL1 cells (embryonic macrophage-derived), DL1 cells
Description: as §1

DL1 cells = assay: cytotoxicity in Drosophila DL1 cells; format: cell-based; conditions: DL1 cells; for IC50: Drosophila melanogaster, cytotoxicity
Description: as §1

[4] = replicate 1, relative to DMSO 1%, read-out: % viability, viability 1
[5] = replicate 2, relative to DMSO 1%, read-out: % viability, viability 2

In the case of `C=C1CCC2C(C)(CC(=O)C=C(C)C)C(O)CCC2(C)C1Cc1c(OC)oc(CO)c(C)c1=O` (stereo not drawn) [Compound 19], the “Luminescence Raw1” value (l(2)mbn cells; 0.04 µM) is reported as 3944169, the “Luminescence Raw2” value (l(2)mbn cells; 0.04 µM) is reported as 2684872 and the “Luminescence Raw1” value (l(2)mbn cells; 0.2 µM) is reported as 3351106. For the same molecule, the “Luminescence Raw2” value (l(2)mbn cells; 0.2 µM) was 3081647, the “Luminescence Raw1” value (l(2)mbn cells; 1 µM) was 3286175 and the “Luminescence Raw2” value (l(2)mbn cells; 1 µM) was 3371307. For the same molecule, the “Luminescence Raw1” value (l(2)mbn cells; 4 µM) was 3215834, the “Luminescence Raw2” value (l(2)mbn cells; 4 µM) was 2985337 and the “Luminescence Raw1” value (l(2)mbn cells; 10 µM) was 2665756. For the same molecule, the “Luminescence Raw2” value (l(2)mbn cells; 10 µM) was 3480969, the “Luminescence Raw1” value (l(2)mbn cells; 20 µM) was 2956119 and the “Luminescence Raw2” value (l(2)mbn cells; 20 µM) was 3004455. It also gave an IC50 (l(2)mbn cells; Drosophila melanogaster, cytotoxicity, average±SEM, read-out: IC50) greater than 20 µM, a viability at 0.04 µM [1, 4] of 154% and a viability at 0.04 µM [1, 5] of 105%. The viability at 0.2 µM [1, 4] was 131%, the viability at 0.2 µM [1, 5] was 120% and the viability at 1 µM [1, 4] was 128%. For the same molecule, the viability at 1 µM [1, 5] was 131%, the viability at 4 µM [1, 4] was 125% and the viability at 4 µM [1, 5] was 116%. For the same molecule, the viability at 10 µM [1, 4] was 104%, the viability at 10 µM [1, 5] was 136% and the viability at 20 µM [1, 4] was 115%. The viability at 20 µM [1, 5] was 117%, the EC50 [2] was 1.6 µM and the GI50 (LOX-IMVI) was 13.6 µM. For the same molecule, the GI50 (BSY-1) was 33.3 µM, the GI50 (MKN-B) was 15.2 µM and the GI50 (KM-12) was 56.2 µM. The GI50 (MCF-7) was 25.4 µM, the GI50 (A549) was 34.4 µM and the GI50 (ACHN) was 14.8 µM. It also gave a GI50 (NCI-H226) of 19.1 µM, a GI50 (NCI-H460) of 6 µM and a viability at 0.04 µM [3, 4] of 92.6%. It also gave a viability at 0.04 µM [3, 5] of 93.4%, a viability at 0.2 µM [3, 4] of 78.6% and a viability at 0.2 µM [3, 5] of 86.7%. For the same molecule, the viability at 1 µM [3, 4] was 92.1%, the viability at 1 µM [3, 5] was 87% and the viability at 4 µM [3, 4] was 86.9%. The viability at 4 µM [3, 5] was 80.7%, the viability at 10 µM [3, 4] was 52.8% and the viability at 10 µM [3, 5] was 59.6%. For the same molecule, the viability at 20 µM [3, 4] was 15.3%, the viability at 20 µM [3, 5] was 22.3% and the “Luminescence Raw1” value (DL1 cells; 0.04 µM, replicate 1) was 1907594. For the same molecule, the “Luminescence Raw2” value (DL1 cells; 0.04 µM, replicate 2) was 1924545, the “Luminescence Raw1” value (DL1 cells; 0.2 µM, replicate 1) was 1618356 and the “Luminescence Raw2” value (DL1 cells; 0.2 µM, replicate 2) was 1786055. The “Luminescence Raw1” value (DL1 cells; 1 µM, replicate 1) was 1896774, the “Luminescence Raw2” value (DL1 cells; 1 µM, replicate 2) was 1792907 and the “Luminescence Raw1” value (DL1 cells; 4 µM, replicate 1) was 1789301. The “Luminescence Raw2” value (DL1 cells; 4 µM, replicate 2) was 1663075, the “Luminescence Raw1” value (DL1 cells; 10 µM, replicate 1) was 1087156 and the “Luminescence Raw2” value (DL1 cells; 10 µM, replicate 2) was 1227796. For the same molecule, the “Luminescence Raw1” value (DL1 cells; 20 µM, replicate 1) was 315492, the “Luminescence Raw2” value (DL1 cells; 20 µM, replicate 2) was 459001 and the IC50 (DL1 cells; average of two replicates, read-out: IC50 Average) was 10.6 µM. For the same molecule, the IC50 (DL1 cells; average±SEM, read-out: IC50) was 10.6 ± 0.23 µM, the IC50 (DL1 cells; replicate 1, read-out: IC50 (1)) was 10.3 µM and the IC50 (DL1 cells; replicate 2, read-out: IC50 (2)) was 10.8 µM.
